Assay results published in patent US9238797B2, “Method for production of pluripotent stem cell” (TAKARA BIO INC., priority 2008, dated 2016).

Tests used:
Format in all cases: cell-based
human skin fibroblast [1] = assay: iPS cell colony induction, gene transfer with Retronectin or polybrene once or two times (Example 7); conditions: 28th day of culture, N=2
Experimental: Regarding gene transfer with a retrovirus vector, introduction was carried out once or two times using Retronectin or polybrene, and induction of a pluripotent stem cell was carried out, followed by comparison.
Regarding gene transfer with Retronectin, according to the same manner as that of Example 4-(2), gene transfer was carried out. Gene transfer with polybrene was carried out as follows. […] Each 700 μL of the virus solutions prepared by Preparation Example 2 were mixed in a combination of the condition C of Table 3, polybrene was added to a final concentration of 8 μg/mL to prepare a retrovirus vector mixed solution, the supernatant was removed from the plate on which the cell had been cultured, this retrovirus vector mixed solution was added, and culturing was initiated (day 0 of culturing).
Gene transfer with polybrene was carried out according to the same manner as that of gene transfer with polybrene of Example 7-(2). That is, the supernatant was removed from the plate on which the cell had been cultured, a retrovirus vector mixed solution prepared similarly was added, and culturing was continued.
On the sixth day of culture, according to the same manner as that of Example 5-(4), the gene-introduced cell was seeded on a feeder cell, and culturing was continued, provided that the gene-introduced cell was seeded by each 1.75×10^4 cells.
The number in the Table indicates an average value of N=2.

human skin fibroblast [2] = assay: Gene transfer efficiency with two retrovirus vectors, AcGFP1/mStrawberry double positive cells by flow cytometer (Example 8); conditions: 3 days after gene transfer
Experimental: According to the same manner as that of Example 1-(1), immobilization of Retronectin on a culture plate was carried out, provided that a non-treatment 24-well culture plate (manufactured by Becton, Dickinson and Company) was used, and a Retronectin solution was added to each well by each 500 μL.
Gene transfer with Retronectin was carried out according to the same manner as that of Example 3-(2), provided that a retrovirus vector was a combination of DON-am-AcGFP1 and DONAI2-am-mStrawberry, and gene transfer was carried out by mixing each 250 μL of virus solutions. Further, a group of mixing 250 μL of a virus solution diluted 50-fold with 10F-DMEM was also set. In addition, a cell was suspended in a medium to 4×10^4 cells/mL, and each 500 μL was added to each well.
Gene transfer with polybrene was carried out in the same combination as that of retrovirus vectors according to the same manner as that of gene transfer with polybrene of Example 7-(2), provided that the cell was suspended in a medium to 4×10^4 cells/mL, and each 500 μL was added to each well of a 24-well culture plate (manufactured by Corning). […]
After 3 days from gene transfer operation, the cells were recovered, and AcGFP1 positive and mStrawberry positive cells were measured with a flow cytometer (CytomicsFC500, manufactured by Beckmann Coulter Inc.).

human skin fibroblast [3] = assay: Gene transfer efficiency with two retrovirus vectors, double positive cells (Example 9); conditions: 5 days after gene transfer
Experimental: According to the same manner as that of Example 8-(1), immobilization of Retronectin on a culture plate was carried out.
According to the same manner as that of Example 8-(2), gene transfer was carried out, provided that a group in which a virus solution is diluted 10-fold or 100-fold with 10F-DMEM was set.
According to the same manner as that of Example 8-(3), a gene transfer efficiency was measured, provided that measurement with a flow cytometer was carried out 5 days after gene transfer operation.

human skin fibroblast [4] = assay: iPS cell colony induction, Retronectin or polybrene with changed virus amount (Example 10); conditions: 28th day of culture, N=2
Experimental: Regarding gene transfer with a retrovirus vector, an amount of retrovirus was further changed in the condition under which each of Retronectin or polybrene was used, and induction of a pluripotent stem cell was carried out, followed by comparison. According to the same manner as that of Example 7-(2), gene transfer was carried out, provided that a group in which a virus solution is diluted 10-fold or 100-fold with 10F-DMEM was set. […] According to the same manner as that of Example 7-(4), the gene-introduced cell was seeded on a feeder cell, and culturing was continued, provided that the gene-introduced cell was seeded by each 2×10^4 cells. […] In addition, the number in the Table indicates an average value of N=2.

human skin fibroblast [5] = assay: iPS cell colony induction with three genes OCT4, SOX2 and KLF4, Retronectin or polybrene (Example 11); conditions: OCT4, SOX2 and KLF4 only, 28th day of culture, N=2
Experimental: By limiting a gene to be introduced to three kinds of OCT4, SOX2 and KLF4, the same experiment as that of Example 10 was carried out.
According to the same manner as that of Example 10-(2), gene transfer was carried out, provided that, as the retrovirus vector, retrovirus vectors DON5-am-OCT4-IR-SOX2 and DON5-am-KLF4 prepared in Preparation Example 2 were used.
According to the same manner as that of Example 10-(4), the gene-introduced cell was seeded on a feeder cell, and culturing was continued.
Culturing was carried out according to the same manner as that of Example 10-(5).
In addition, the number in the Table indicates an average value of N=2.

[6] = system: human adult skin fibroblast; assay: iPS cell colony induction using a lentivirus vector, Retronectin or polybrene (Example 31); conditions: 32nd day of culture
Experimental: According to the same manner as that of Example 1-(1), immobilization of Retronectin on a culture plate was carried out, provided that, as a plate to be coated with Retronectin, a non-treatment 12-well plate was used, and each 1 mL of a Retronectin solution (25 μg/mL) was added to each well.
Each 500 μL of each mixed virus solution prepared in Preparation Example 5 was added to a 12-well Retronectin immobilization culture plate, or a 12-well culture plate, and each 500 μL of human adult skin fibroblast suspended in 10F-DMEM to 1×10^5 cells/mL was further added to each well. Regarding polybrene infection condition, polybrene was added to a final concentration of 8 μg/mL. […] (day 0 of culturing).
On the sixth day of culture, according to the same manner as that of Example 5-(4), the gene-introduced cell was seeded on a feeder cell, and culturing was continued. […] During this, the medium was exchanged at 2 days interval.
In addition, regarding the condition A, the results of only one well are shown.

Retronectin: fragment of fibronectin having a heparin-II binding region (registered trademark, CH-296, TAKARA BIO INC.)
Number of iPS cell colonies (human skin fibroblast [1]; gene transfer once, with protein starvation treatment): 25.5
Number of iPS cell colonies (human skin fibroblast [1]; gene transfer once, without protein starvation treatment): 9.5
Number of iPS cell colonies (human skin fibroblast [1]; gene transfer two times, with protein starvation treatment): 30.0
Number of iPS cell colonies (human skin fibroblast [1]; gene transfer two times, without protein starvation treatment): 26.0
Ratio of double positive cells (human skin fibroblast [2]; virus 50-fold dilution): 66.5%
Ratio of double positive cells (human skin fibroblast [2]; virus solution undiluted): 40.7%
Ratio of both positive cells (human skin fibroblast [3]; virus 10-fold dilution): 55.4
Ratio of both positive cells (human skin fibroblast [3]; virus 100-fold dilution): 67.6
Ratio of both positive cells (human skin fibroblast [3]; virus solution undiluted): 33.9
Number of iPS cell colonies (human skin fibroblast [4]; virus 10-fold dilution): 12.0
Number of iPS cell colonies (human skin fibroblast [4]; virus 100-fold dilution): 17.5
Number of iPS cell colonies (human skin fibroblast [4]; virus solution undiluted): 6.5
Number of iPS cell colonies (human skin fibroblast [5]; virus 10-fold dilution): 28.0
Number of iPS cell colonies (human skin fibroblast [5]; virus 100-fold dilution): 32.0
Number of iPS cell colonies (human skin fibroblast [5]; virus solution undiluted): 13.0
number of a pluripotent stem cell (iPS cell) colony, Well 1 ([6]; 20-fold concentrated virus): 3
number of a pluripotent stem cell (iPS cell) colony, Well 2 ([6]; 20-fold concentrated virus): 2
number of a pluripotent stem cell (iPS cell) colony, Well 1 ([6]; virus without concentration): 5
